Assay results taken from patent publication US20220339116A1, “LIPID NANOPARTICLES AS ORAL VEHICLES OF IMMUNOTHERAPY” (The Johns Hopkins University, priority 2019, published 2022).

Legend:
[1] = tested on: bone marrow derived dendritic cells (DC); assay: DC maturation in response to LPS with soluble Tofa (flow cytometry, ELISA); assay type: cell-based, mouse
Description: FIGS. 2A-2B. Jak inhibition impacts APC maturation. 2A, Representative graphs of surface expression of maturation markers on DC left untreated or exposed overnight to LPS+/−Tofa. 2B, Supernatants from DC cultures were tested for accumulation of the indicated cytokines by ELISA. n=3.
The latter two have been implicated in T1D development and inhibition of their accumulation would be a valuable effect.

[2] = tested on: Treg cells; assay: T cell CFSE-Proliferation-Assay of Treg suppressive activity; assay type: cell-based; conditions: Treg at 2:1 or 4:1 T cell to Treg ratio; Tofa at 0.5 or 1 μM
Description: FIG. 3. […] Results of CFSE-Proliferation-Assay conducted with the addition of Treg cells (at either 2:1 or 4:1 T cell to Treg ratio) and Tofa (at 0.5 or 1 μM). Values are normalized to the extent of proliferation measured with no Treg.

[3] = tested on: NOD mice; assay: Diabetes onset in NOD mice after oral gavage; assay type: in vivo, mouse; conditions: amount identical to that used in Tofa-NLC; ongoing group
From the text: FIG. 13. Oral administration of Tofa-NLC delays diabetes onset. We tested the effect of Tofa-NLC administration via oral gavage to two treatment groups: 1) 3 week-old NOD mice (corresponding to Pre-stage 1 in human patients) and 2) 10 week-old NOD mice (corresponding to advanced Stage 1 in human patients).
All these characteristics indicate that LNp would be a most valuable delivery system for the tissue selective actuation of a combination immunotherapy. We then began to define the effects of a transient administration of Tofa-NLC on diabetes development in NOD mice. […] We then tested the effect of Tofa-NLC administration via oral gavage to two treatment groups: 1) 3 week-old NOD mice (corresponding to Pre-stage 1 in human patients) and 2) 10 week-old NOD mice (corresponding to advanced Stage 1 in human patients). […] In particular, oral administration to 3-week-old NOD mice prevented onset of disease in 70% of the animals for more than 40 weeks.

[4] = cited from earlier work

| Substance | release of inflammatory cytokines IL-6, IL-1, TNF-α ([1]; DC culture supernatants, ELISA) | up-regulation of CD80 and CD86 costimulatory molecules ([1]; DC exposed to LPS +/- Tofa) | up-regulation of MHC-II molecules ([1]; DC exposed to LPS +/- Tofa) | suppressive activity of Treg [2] | therapeutic effect on diabetes development [3] | Solubility in Dimethyl Sulfoxide [4] |
| --- | --- | --- | --- | --- | --- | --- |
| Tofacitinib | reduction in release of the prototypical inflammatory cytokines | significant inhibition of the up-regulation of CD80 and CD86 costimulatory molecules | did not prevent the up-regulation of MHC-II molecules | preservation of regulatory activity | inferior (if not absent) therapeutic effect | – |
| Filgotinib | – | – | – | – | – | 85 mg/mL |
